Source: patent publication US20210246115A1 (Bioimics AB, priority 2017, published 2021)
≈ marks a conversion by molar mass, not a printed value. Counter-ions that a name gives are not always drawn. Like-named read-outs stand apart in the source and are kept apart here.

How the values were obtained:
[1] = tested on: Staphylococcus aureus subsp. aureus (ATCC29213); experiment: MIC, broth microdilution (CLSI), Staphylococcus aureus ATCC29213; format: cell-based; conditions: for MIC: Staphylococcus aureus; for S. aureus ATCC 29213 MIC: Table XIII, hydrochloride salt
[2] = tested on: Escherichia coli (ATCC25922); experiment: MIC, broth microdilution (CLSI), Escherichia coli; conditions: for MIC: Escherichia coli, ATCC25922, read-out: E. coli ATCC 25922 MIC, Table XIII; for E. coli ATCC 25922 MIC: Table XIII
[3] = tested on: E. coli RNase P RNA, M1 RNA; experiment: Inhibition of bacterial RNase P activity, IC50 determination (cleavage of pATSerUG by M1 RNA); format: biochemical; conditions: NI: No inhibition
[4] = ATCC29213, read-out: S. aureus ATCC 29213 MIC, Table XIII
[5] = ATCC29213, Table XIII, read-out: S. aureus ATCC 29213 MIC

| SMILES | MIC [2] [µg/mL] | MIC [1, 5] [µg/mL] | IC50 [3] [µM] | MIC [1, 4] [µg/mL] | IC50 ([3]; hydrochloride salt) [µM] | S. aureus ATCC 29213 MIC [1] [µg/mL] | E. coli ATCC 25922 MIC [2] [µg/mL] | E. coli ATCC 25922 MIC ([2]; hydrochloride salt) [µg/mL] |
| --- | --- | --- | --- | --- | --- | --- | --- | --- |
| NC1CCC(NCCC(c2cccc(OC(F)(F)F)c2)c2cn(C3CCCCC3)c3ccccc23)CC1 [Compound 393, (1S,4S)- -N1-(3-(1-cyclohexyl-1H-indol-3-yl)-3-(3-(trifluoromethoxy)phenyl)propyl)cyclohexane-1,4-diamine hydrochloride salt] | 8 |  |  | 4 | 16 |  |  |  |
| NC1CCC(NCCC(c2cccc(OC(F)(F)F)c2)c2cn(C3CCCCC3)c3ccccc23)CC1 [Compound 397, (1S,4S)-N1-(3-(1-cyclohexyl-1H-indol-3-yl)-3-(3-(trifluoromethoxy)phenyl)propyl)cyclohexane-1,4-diamine hydrochloride salt] |  |  |  |  | 6 | 2 | 8 |  |
| Cc1cccc(C(CCNC2CCN(C(N)=O)CC2)c2cn(C3CCCCC3)c3ccccc23)c1.Cl.Cl (stereo not drawn) [Compound 374, 4-((3-(1-cyclohexyl-1H-indol-3-yl)-3-(m-tolyl)propyl)amino)piperidine-1-carboxamide hydrochloride salt] | > 128 | 16 | 53 |  |  |  |  |  |
| NCCCNC1CCCC(c2cn(C3CCCCC3)c3ccc(-c4cccc(OC(F)(F)F)c4)cc23)C1 (stereo not drawn) [Compound 404, N1-(3-(1-cyclohexyl-5-(3-(trifluoromethoxy)phenyl)-1H-indol-3-yl)cyclohexyl)propane-1,3-diamine hydrochloride salt] | 8 |  | 4.8 | 4 |  |  |  |  |
| Cl.Cl.NCCCNCCCc1cn(C2CCCCC2)c2ccc(C3CCCCC3)cc12 [Compound 399, N1-(3-(1,5-dicyclohexyl-1H-indol-3-yl)propyl)propane-1,3-diamine hydrochloride salt] | 4 | 4 | 6.3 |  |  |  |  |  |
| Cc1cccc(-c2ccc3c(c2)c(C2CCCC(NC4CCNCC4)C2)cn3C2CCCCC2)c1 (stereo not drawn) [Compound 396, N-(3-(1-cyclohexyl-5-(m-tolyl)-1H-indol-3-yl)cyclohexyl)piperidin-4-amine hydrochloride salt] | 4 |  | 12 | 2 |  |  |  |  |
| Cc1cccc(C(CCN[C@H]2CC[C@H](N)CC2)c2cn(C3CCCCC3)c3ccc(-c4ccnn4C)cc23)c1.Cl.Cl (stereo partly drawn) [Compound 409, (1R,4R)-N1-(3-(1-cyclohexyl-5-(1-methyl-1H-pyrazol-5-yl)-1H-indol-3-yl)-3-(m-tolyl)propyl)cyclohexane-1,4-diamine hydrochloride salt] | 16 | 4 | 39 |  |  |  |  |  |
| Cc1cccc(C(CCNCCCN)c2cn(C3CCCCC3)c3ccccc23)c1 (stereo not drawn) [Compound 358, N1-(3-(1-cyclohexyl-1H-indol-3-yl)-3-(m-tolyl)propyl)propane-1,3-diamine] | 4 (≈ 9.91 µM) | 8 (≈ 19.8 µM) | 38 |  |  |  |  |  |
| Cc1cccc(C(CCNC2CCC(N)CC2)c2cn(C3CCCCC3)c3ccccc23)c1 (stereo not drawn) [Compound 308, N1-(3-(1-cyclohexyl-1H-indol-3-yl)-3-(m-tolyl)propyl)cyclohexane-1,4-diamine hydrochloride salt] | 4 |  |  |  | 29 | 4 |  |  |
| N#Cc1ccc2c(C(CCNC3CCC(N)CC3)c3cccc(OC(F)(F)F)c3)cn(C3CCCCC3)c2c1 [Compound 415, 3-(3-(((1S,4S)-4-aminocyclohexyl)amino)-1-(3-(trifluoromethoxy)phenyl)propyl)-1-cyclohexyl-1H-indole-6-carbonitrile hydrochloride salt] | 16 |  | 16 | 4 |  |  |  |  |
| Cc1cccc(CC(CCNC2CCNCC2)c2cn(C3CCCCC3)c3ccccc23)c1 (stereo not drawn) [Compound 418, N-(3-(1-cyclohexyl-1H-indol-3-yl)-4-(m-tolyl)butyl)piperidin-4-amine hydrochloride salt] | 4 |  | 17 | 8 |  |  |  |  |
| CCCCCCCCn1cc(C(CCNCCCN)C2CCCCC2)c2ccccc21.Cl.Cl (stereo not drawn) [Compound 417, N1-(3-cyclohexyl-3-(1-octyl-1H-indol-3-yl)propyl)propane-1,3-diamine hydrochloride salt] | 4 | 2 | 2.8 |  |  |  |  |  |
| Cc1cccc(C(CCNC2CCC(N)CC2)c2cn(C3CCCCC3)c3ccccc23)c1 [Compound 395, (1S,4S)- -N1-(3-(1-cyclohexyl-1H-indol-3-yl)-3-(m-tolyl)propyl) cyclohexane-1,4-diamine hydrochloride salt] |  |  |  |  | 8.2 | 1 |  | 8 |
| Cc1cccc(C(CCNC2CCC(N)CC2)c2cn(CC3CCCCC3)c3ccc([N+](=O)[O-])cc23)c1 [Compound 425, (1S,4S)-N1-(3-(1-(cyclohexylmethyl)-5-nitro-1H-indol-3-yl)-3-(m-tolyl)propyl) cyclohexane-1,4-diamine hydrochloride salt] | 8 | 2 | 12 |  |  |  |  |  |
| N#Cc1ccc2c(c1)c(C(CCNC1CCNC1)C1CCCCC1)cn2C1CCCCC1 (stereo not drawn) [Compound 413, 1-cyclohexyl-3-(1-cyclohexyl-3-(pyrrolidin-3-ylamino)propyl)-1H-indole-5-carbonitrile hydrochloride salt] | 8 |  | 20 | 4 |  |  |  |  |
| Cc1cccc(C(CCNCCCN)c2cn(C3CCNCC3)c3ccccc23)c1.Cl.Cl.Cl (stereo not drawn) [Compound 322, N1-(3-(1-(piperidin-4-yl)-1H-indol-3-yl)-3-(m-tolyl)propyl)propane-1,3-diamine hydrochloride salt] | > 128 | 16 | 120 |  |  |  |  |  |
| Cl.Cl.N[C@H]1CC[C@H](NCCCc2cn(C3CCCCC3)c3ccc(C4CCCCC4)cc23)CC1 [Compound 398, (1r,4r)-N1-(3-(1,5-dicyclohexyl-1H-indol-3-yl)propyl)cyclohexane-1,4-diamine hydrochloride salt] | 4 | 2 | 9 |  |  |  |  |  |

The next lines start with results.

| MIC [2] [µg/mL] | MIC [1, 5] [µg/mL] | IC50 [3] [µM] | SMILES | MIC [1, 4] [µg/mL] | IC50 ([3]; hydrochloride salt) [µM] | S. aureus ATCC 29213 MIC [1] [µg/mL] | E. coli ATCC 25922 MIC [2] [µg/mL] | E. coli ATCC 25922 MIC ([2]; hydrochloride salt) [µg/mL] |
| --- | --- | --- | --- | --- | --- | --- | --- | --- |
| 4 | 8 | 41 | Cc1ccccc1C(CCNCCCN)c1cn(C2CCCCC2)c2ccccc12.Cl.Cl (stereo not drawn) [Compound 345, N1-(3-(1-cyclohexyl-1H-indol-3-yl)-3-(o-tolyl)propyl)propane-1,3-diamine hydrochloride salt] |  |  |  |  |  |
| > 128 | 16 (≈ 32.9 µM) | 130 | Cc1cccc(C(CCN[C@H]2CC[C@H](NC(N)=O)CC2)c2cn(C3CCCCC3)c3ccccc23)c1 (stereo partly drawn) [Compound 377, 1-((1R,4R)-4-((3-(1-cyclohexyl-1H-indol-3-yl)-3-(m-tolyl)propyl)amino)cyclohexyl) urea] |  |  |  |  |  |
| 4 | 4 | 20 | Cl.Cl.N#Cc1ccc2c(c1)c(C(CCNCCCN)C1CCCCC1)cn2C1CCCCC1 (stereo not drawn) [Compound 382, 3-(3-((3 - aminopropyl)amino)-1-cyclohexylpropyl)-1-cyclohexyl-1H-indole-5-carbonitrile hydrochloride salt] |  |  |  |  |  |
| 2 | 8 | 31 | Cl.Cl.NCCCNCCC(c1cn(C2CCCCC2)c2ccccc12)C1CCCC1 (stereo not drawn) [Compound 423, N1-(3-(1-cyclohexyl-1H-indol-3-yl)-3-cyclopentylpropyl) propane-1,3-diamine hydrochloride salt] |  |  |  |  |  |
| 4 | 4 | 16 | Cl.Cl.NCCCNCCC(c1cccc(C(F)(F)F)c1)c1cn(C2CCCCC2)c2ccccc12 (stereo not drawn) [Compound 351, N1-(3-(1-cyclohexyl-1H-indol-3-yl)-3-(3-(trifluoromethyl)phenyl)propyl)propane-1,3-diamine hydrochloride salt] |  |  |  |  |  |
| 4 | 4 | 11 | Cc1cccc(C(CCNCCCN)c2cn(C3CCCCC3)c3ccc(Br)cc23)c1.Cl.Cl (stereo not drawn) [Compound 655, N1-(3-(5-bromo-1-cyclohexyl-1H-indol-3-yl)-3-(m-tolyl)propyl)propane-1,3-diamine hydrochloride salt] |  |  |  |  |  |
| 32 | 4 | 19 | Cc1cccc(C(CCNC2CCN(C(=N)N)CC2)c2cn(C3CCCCC3)c3ccccc23)c1.Cl (stereo not drawn) [Compound 353, 4-((3-(1-cyclohexyl-1H-indol-3-yl)-3-(m-tolyl)propyl)amino)piperidine-1-carboximidamide hydrochloride salt] |  |  |  |  |  |
| 2 (≈ 4.59 µM) | 2 (≈ 4.59 µM) | 8.4 | NCCCNC1CCCC(c2cn(C3CCCCC3)c3ccc(C4CCCCC4)cc23)C1 (stereo not drawn) [Compound 420, N1-(3-(1,5-dicyclohexyl-1H-indol-3-yl)cyclohexyl)propane-1,3-diamine] |  |  |  |  |  |
| 4 | 8 | 32 | Cc1cccc(C(CCNCCCN)c2cn(C3CC4CCC3C4)c3ccccc23)c1.Cl.Cl (stereo not drawn) [Compound 341, N1-(3-(1-(bicyclo[2.2.1]heptan-2-yl)-1H-indol-3-yl)-3-(m-tolyl)propyl)propane-1,3-diamine hydrochloride salt] |  |  |  |  |  |
| 4 | 4 | 10 | Cl.Cl.N#Cc1ccc2c(C(CCNCCCN)c3cccc(OC(F)(F)F)c3)cn(C3CCCCC3)c2c1 (stereo not drawn) [Compound 410, 3-(3-((3-aminopropyl)amino)-1-(3-(trifluoromethoxy)phenyl)propyl)-1-cyclohexyl-1H-indole-6-carbonitrile salt] |  |  |  |  |  |
| 8 | 8 | 68 | Cc1cccc(C(CCNCCCN)c2cn(C3CCCC3)c3ccccc23)c1.Cl.Cl (stereo not drawn) [Compound 334, N1-(3-(1-cyclopentyl-1H-indol-3-yl)-3-(m-tolyl)propyl)propane-1,3-diamine hydrochloride salt] |  |  |  |  |  |
